Assay results: patent US20240150356A1, “Pyrimidine amide compounds and use thereof” (ALPHALA CO., LTD., priority 2019, published 2024)
Read-outs that look alike come from different tables or passages of the source.

Key:
Assay type in all cases: cell-based
[1] = tested on: Hep3B cells (hepatocellular carcinoma cell line); assay: In vitro MTS cell viability assay (NCI-60 methodology), Hep3B; details: Homo sapiens, 48 h, 2 days drug incubation, 50% reduction vs time zero, read-out: Hep3B LC50
Procedure, shortened: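 Hep3B cells given five 2-fold dilutions of compound for 2 days, with viability by MTS measured at time zero and at end. LC50 is the concentration giving a 50% fall in viable cells relative to the start of treatment, per NCI-60 formula.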

[2] = tested on: SW480 (colon adenocarcinoma cell line); assay: In vitro MTS cell viability assay (NCI-60 methodology), SW480; details: Homo sapiens, SW480 cells, read-out: SW480 LC50
Procedure, shortened: (§1)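 NCI-60 style: compound added 24 h post-plating at five 2-fold dilutions plus DMSO control, then 2 days' incubation, MTS read-out. Time-zero plate gives Tz; LC50 is the concentration where [(Ti−Tz)/Tz]×100=−50.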

[3] = tested on: NCI-H460 (human lung cancer cell line); assay: In vitro MTS cell viability assay (NCI-60 methodology), NCI-H460; details: NCI-H460 cells, read-out: NCI-H460 LC50
Procedure, shortened: as §1

O=C(Nc1nc(-c2ccc(Cl)cc2)nc2c1cnn2-c1ccc(F)cc1)c1ccc([N+](=O)[O-])s1 [Compound 6-118, N-(6-(chlorophenyl)-1-(4-fluorophenyl)-1H-pyrazolo[3,4-d]pyrimidin-4-yl)-5-nitrothiophene-2-carboxamide]
LC50 ([1]; Table 6, MTS): 250 nM | CC50 [2]: 2180 nM | CC50 [3]: 980 nM

O=C(Nc1nc(-c2ccc(C(F)(F)F)cc2)nc2c1cnn2-c1ccccc1)c1ccc([N+](=O)[O-])s1 [Compound 5-39, 5-nitro-N-(1-phenyl-6-(4-(trifluoromethyl)phenyl)-1H-pyrazolo[3,4-d]pyrimidin-4-yl)thiophene-2-carboxamide]
LC50 ([1]; Table 5, MTS): 320 nM | CC50 [2]: > 10000 nM | CC50 [3]: 1250 nM

O=C(Nc1nc(-c2ccc(Cl)cc2F)nc2c1cnn2-c1ccc(F)cc1)c1ccc([N+](=O)[O-])s1 [Compound 6-128, N-(6-(4-chloro-2-fluorophenyl)-1-(4-fluorophenyl)-1H-pyrazolo[3,4,d]pyrimidin-4-yl)-5-nitrothiophene-2-carboxamide]
LC50 ([1]; Table 6, MTS): 70 nM | CC50 [2]: 570 nM | CC50 [3]: 310 nM

Cc1csc2c(NC(=O)c3ccc([N+](=O)[O-])s3)nc(-c3ccc(C(F)(F)F)cc3)nc12 [Compound 4-2, N-(7-methyl-2-(4-(trifluoromethyl)phenyl)thieno[3,2-d]pyrimidin-4-yl)-5-nitrothiophene-2-carboxamide]
LC50 ([1]; Table 4, MTS): 970 nM | CC50 [2]: 10100 nM | CC50 [3]: 1650 nM

COc1ccc(-c2nc(NC(=O)c3ccc([N+](=O)[O-])s3)c3cnn(-c4ccccc4)c3n2)cn1 [Compound 5-35, N-(6-(6-methoxypyridin-3-yl)-1-phenyl-1H-pyrazolo[3,4-d]pyrimidin-4-yl)-5-nitrothiophene-2-carboxamide]
LC50 ([1]; Table 5, MTS): 180 nM | CC50 [2]: 1110 nM | CC50 [3]: 650 nM

O=C(Nc1nc(-c2ccc(OC(F)(F)F)cc2)nc2c1cnn2-c1ccccc1)c1ccc([N+](=O)[O-])s1 [Compound 5-40, 5-nitro-N-(1-phenyl-6-(4-(trifluoromethoxy)phenyl)-1H-pyrazolo[3,4-d]pyrimidin-4-yl)thiophene-2-carboxamide]
LC50 ([1]; Table 5, MTS): 430 nM | CC50 [2]: 5420 nM | CC50 [3]: 930 nM

Cc1ccc(-n2ncc3c(NC(=O)c4ccc([N+](=O)[O-])s4)nc(-c4ccc(F)cc4)nc32)cc1 [Compound 6-4, N-(6-(4-fluorophenyl)-1-(p-tolyl)-1H-pyrazolo[3,4-d]pyrimidin-4-yl)-5-nitrothiophene-2-carboxamide]
LC50 ([1]; Table 6, MTS): 280 nM | CC50 [2]: 1510 nM | CC50 [3]: 680 nM

Cc1csc2c(NC(=O)c3ccc([N+](=O)[O-])s3)nc(-c3cccc(OC(F)(F)F)c3)nc12 [Compound 4-5, N-(7-methyl-2-(3-(trifluoromethoxy)phenyl)thieno[3,2-d]pyrimidin-4-yl)-5-nitrothiophene-2-carboxamide]
LC50 ([1]; Table 4, MTS): 790 nM | CC50 [2]: 3510 nM | CC50 [3]: 2450 nM

CCOC[C@@H]1CCCN1c1nc(NC(=O)c2ccc([N+](=O)[O-])s2)c2cnn(-c3ccc(F)cc3)c2n1 [Compound 6-104]
LC50 ([1]; Table 6, MTS): 380 nM | CC50 [2]: 650 nM | CC50 [3]: 860 nM

CCOCCOCCOc1ccc(-c2nc(NC(=O)c3ccc([N+](=O)[O-])s3)c3cnn(-c4ccc(OC)cc4)c3n2)cn1 [Compound 6-28, N-(6-(6-(2-(2-ethoxyethoxy)ethoxy)pyridin-3-yl)-1-(4-methoxyphenyl)-1H-pyrazolo[3,4-d]pyrimidin-4-yl)-5-nitrothiophene-2-carboxamide]
LC50 ([1]; Table 6, MTS): 190 nM | CC50 [2]: 3440 nM | CC50 [3]: 680 nM

COC(=O)c1ccc(-c2nc(NC(=O)c3ccc([N+](=O)[O-])s3)c3cnn(C4CCCCC4)c3n2)cc1 [Compound 10-32, methyl 4-(1-cyclohexyl-4-(5-nitrothiophene-2-carboxamido)-1H-pyrazolo[3,4-d]pyrmidin-6-yl)benzoate]
LC50 ([1]; Table 10, MTS): 400 nM | CC50 [2]: 1210 nM | CC50 [3]: 1720 nM

Cn1ncc2c(NC(=O)c3ccc([N+](=O)[O-])s3)nc(/C=C/c3ccc(C(F)(F)F)cc3)nc21 [Compound 1-11, (E)-N-(1-methyl-6-(4-(trifluoromethyl)styryl)-1H-pyrazolo[3,4-d]pyrimidin-4-yl)-5-nitrothiophene-2-carboxamide]
LC50 ([1]; Table 1, MTS): 1710 nM | CC50 [2]: 2240 nM | CC50 [3]: 2620 nM

O=C(Nc1nc(-c2ccc(OCC(F)(F)C(F)F)nc2)nc2c1cnn2-c1ccccc1)c1ccc([N+](=O)[O-])s1 [Compound 5-56, 5-nitro-N-(1-phenyl-6-(6-(2,2,3,3-tetrafluoropropoxy)pyridin-3-yl)-1H-pyrazolo[3,4-d]pyrimidin-4-yl)thiophene-2-carboxamide]
LC50 ([1]; Table 5, MTS): 400 nM | CC50 [2]: 730 nM | CC50 [3]: 1100 nM

COc1ccc(-n2ncc3c(NC(=O)c4ccc([N+](=O)[O-])s4)nc(-c4ccc(F)cc4)nc32)cc1 [Compound 6-18, N-(6-(4-fluorophenyl)-1-(4-methoxyphenyl)-1H-pyrazolo[3,4-d]pyrimidin-4-yl)-5-nitrothiophene-2-carboxamide]
LC50 ([1]; Table 6, MTS): 180 nM | CC50 [2]: 1240 nM | CC50 [3]: 270 nM

O=C(Nc1nc(N2CCC(F)(F)C2)nc2c1cnn2-c1ccc(OC(F)(F)F)cc1)c1ccc([N+](=O)[O-])s1 [Compound 6-85, N-(6-(3,3-difluoropyrrolidin-1-yl)-1-(4-(trifluoromethoxy)phenyl)-1H-pyrazolo[3,4-d]pyrimidin-4-yl)-5-nitrothiophene-2-carboxamide]
LC50 ([1]; Table 6, MTS): 200 nM | CC50 [2]: 680 nM | CC50 [3]: 560 nM

O=C(Nc1nc(-c2ccc(Cl)cc2)nc2c1cnn2-c1ccccc1)c1ccc([N+](=O)[O-])s1 [Compound 5-30, N-(6-(4-chlorophenyl)-1-phenyl-1H-pyrazolo[3,4-d]pyrimidin-4-yl)-5-nitrothiophene-2-carboxamide]
LC50 ([1]; Table 5, MTS): 350 nM | CC50 [2]: 2690 nM | CC50 [3]: 540 nM

O=C(Nc1nc(-c2cccs2)nc2c1cnn2-c1ccccc1)c1ccc([N+](=O)[O-])s1 [Compound 5-18, 5-nitro-N-(1-phenyl-6-(thiophen-2-yl)-1H-pyrazolo[3,4-d]pyrimidin-4-yl)thiophene-2-carboxamide]
LC50 ([1]; Table 5, MTS): 580 nM | CC50 [2]: 2430 nM | CC50 [3]: 460 nM

O=C(Nc1nc(-c2ccc(Cl)nc2)nc2c1cnn2-c1ccccc1)c1ccc([N+](=O)[O-])s1 [Compound 5-31, N-(6-(6-chloropyridin-3-yl)-1-phenyl-1H-pyrazolo[3,4-d]pyrimidin-4-yl)-5-nitrothiophene-2-carboxamide]
LC50 ([1]; Table 5, MTS): 100 nM | CC50 [2]: 860 nM | CC50 [3]: 410 nM

O=C(Nc1nc(-c2ccc(F)nc2)nc2c1cnn2-c1ccccc1)c1ccc([N+](=O)[O-])s1 [Compound 5-28, N-(6-(6-fluoropyridin-3-yl)-1-phenyl-1H-pyrazolo[3,4-d]pyrimidin-4-yl)-5-nitrothiophene-2-carboxamide]
LC50 ([1]; Table 5, MTS): 130 nM | CC50 [2]: 590 nM | CC50 [3]: 280 nM

CN(C)CCOc1ccc(-c2nc(NC(=O)c3ccc([N+](=O)[O-])s3)c3cnn(-c4ccc(F)cc4)c3n2)cn1 [Compound 6-130, N-(6-(6-(2-(dimethylamino)ethoxy)pyridin-3-yl)-1-(4-fluorophenyl)-1H-pyrazolo[3,4-d]pyrimidin-4-yl)-5-nitrothiophene-2-carboxamide]
LC50 ([1]; Table 6, MTS): 260 nM | CC50 [2]: 2900 nM | CC50 [3]: 3810 nM
